Assay results reported in patent publication US7741341B2, “Benzimidazole-derivatives as factor Xa inhibitors” (sanofi-aventis Deutschland GmbH, priority 2003, dated 2010).

Molecular target: T1, human factor Xa (Homo sapiens, UniProt P00742)
T1 construct: human factor Xa (Enzyme Research Laboratories, Inc; South Bend, Ind.); purchased Enzyme Research Laboratories, Inc; South Bend, Ind
Assay: Factor Xa assay (chromogenic, substrate S-2765)
Type: biochemical
Conditions: read-out: Ki(FXa)
Method: Purified enzymes were used in chromogenic assays.
The IC50 was determined by combining in appropriate wells of a Costar half-area microtiter plate 25 μl human factor Xa (Enzyme Research Laboratories, Inc.; South Bend, Ind.) in TBS-PEG; 40 μl 10% (v/v) DMSO in TBS-PEG (uninhibited control) or various concentrations of the compound to be tested diluted in 10% (v/v) DMSO in TBS-PEG; and substrate S-2765 (N(α)-benzyloxycarbonyl-D-Arg-Gly-L-Arg-p-nitroanilide; Kabi Pharmacia, Inc.; Franklin, Ohio) in TBS-PEG.
The assay was performed by pre-incubating the compound of formula I plus enzyme for 10 min. Then the assay was initiated by adding substrate to obtain a final volume of 100 μl. […] The enzyme concentration was 0.5 nM and substrate concentration was 140 μM.

T1 sequence (P00742 235-488 limits assumed): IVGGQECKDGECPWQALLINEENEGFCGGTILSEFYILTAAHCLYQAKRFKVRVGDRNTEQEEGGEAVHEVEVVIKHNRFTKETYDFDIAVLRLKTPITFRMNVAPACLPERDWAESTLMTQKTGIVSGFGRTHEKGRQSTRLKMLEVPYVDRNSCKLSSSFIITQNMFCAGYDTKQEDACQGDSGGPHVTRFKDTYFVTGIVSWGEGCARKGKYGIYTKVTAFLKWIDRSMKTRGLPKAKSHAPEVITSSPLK
T1 sequence (P00742 41-179 partner limits assumed): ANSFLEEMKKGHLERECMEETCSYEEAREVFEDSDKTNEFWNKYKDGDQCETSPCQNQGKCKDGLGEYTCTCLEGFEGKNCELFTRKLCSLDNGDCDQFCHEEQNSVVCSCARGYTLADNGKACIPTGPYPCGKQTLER

Ki | Compound
0.0014 µM | CC(C)N1CCC(NC(=O)c2nc3ccccc3n2CC(=O)Nc2ccc(Cl)cn2)CC1 [Example 3, 1-[(5-Chloro-pyridin-2-ylcarbamoyl)-methyl]-1H-benzoimidazole-2-carboxylic acid (1-isopropyl-piperidin-4-yl)-amide]
0.0155 µM | CC(C)N1CCC(NC(=O)c2nc3c(C(=O)N(C)CCO)cccc3n2CC(=O)Nc2ccc(Cl)cn2)CC1 [Example 31, 1-[(5-Chloro-pyridin-2-ylcarbamoyl)-methyl]-1H-benzoimidazole-2,4-dicarboxylic acid 4-[(2-hydroxy-ethyl)-methyl-amide] 2-[(1-isopropyl-piperidin-4-yl)-amide]]
0.175 µM | COC(=O)c1ccc2nc(C(=O)NC3CCN(C(C)C)CC3)n(Cc3cc(-c4ccc(Cl)s4)on3)c2c1 [Example 5b, 3-[5-(5-Chloro-thiophen-2-yl)-isoxazol-3-ylmethyl]-2-(1-isopropyl-piperidin-4-ylcarbamoyl)-3H-benzoimidazole-5-carboxylic acid methyl ester]
0.0255 µM | CC(C)N1CCC(NC(=O)c2nc3cc(S(=O)(=O)CCO)ccc3n2Cc2cc(-c3ccc(Cl)s3)on2)CC1 [Example 29a, 1-[5-(5-Chloro-thiophen-2-yl)-isoxazol-3-ylmethyl]-5-(2-hydroxy-ethanesulfonyl)-1H-benzoimidazole-2-carboxylic acid (1-isopropyl-piperidin-4-yl)-amide]
0.006 µM | O=C(Nc1ccc(-n2ccc(=O)[nH]c2=O)cc1)c1nc2ccccc2n1Cc1cc(-c2ccc(Cl)s2)on1 [Example 41, 1-[5-(5-Chloro-thiophen-2-yl)-isoxazol-3-ylmethyl]-1H-benzoimidazole-2-carboxylic acid [4-(2,4-dioxo-3,4-dihydro-2H-pyrimidin-1-yl)-phenyl]-amide]
0.047 µM | O=C(Cn1c(C(=O)Nc2ccc(-n3ccc(=O)cc3)cc2)nc2ccccc21)Nc1ccc(Cl)cn1 [Example 39, 1-[(5-Chloro-pyridin-2-ylcarbamoyl)-methyl]-1H-benzoimidazole-2-carboxylic acid [4-(4-oxo-4H-pyridin-1-yl)-phenyl]-amide]
0.094 µM | CC(C)N1CCC(NC(=O)c2nc3cc(C(=O)O)ccc3n2Cc2cnc(-c3ccc(Cl)s3)s2)CC1 [Example 9, 1-[2-(5-Chloro-thiophen-2-yl)-thiazol-5-ylmethyl]-2-(1-isopropyl-piperidin-4-ylcarbamoyl)-1H-benzoimidazole-5-carboxylic acid]
0.019 µM | CC(C)N1CCC(NC(=O)c2nc3c(C(=O)N4CCOCC4)cccc3n2CC(=O)Nc2ccc(Cl)cn2)CC1 [Example 73, 1-[(5-Chloro-pyridin-2-ylcarbamoyl)-methyl]-4-(morpholine-4-carbonyl)-1H-benzoimidazole-2-carboxylic acid (1-isopropyl-piperidin-4-yl)-amide]
0.585 µM | CC(C)N1CCC(NC(=O)c2nc3ccc(C(=O)NCCO)cc3n2CC(=O)Nc2ccc(Cl)cn2)CC1 [Example 57, 3-[(5-Chloro-pyridin-2-ylcarbamoyl)-methyl]-3H-benzoimidazole-2,5-dicarboxylic acid 5-[(2-hydroxy-ethyl)-amide]2-[(1-isopropyl-piperidin-4-yl)-amide]]
0.007 µM | CC(C)N1CCC(NC(=O)c2nc3c(CO)cccc3n2CC(=O)Nc2ccc(Cl)cn2)CC1 [Example 71, 1-[(5-Chloro-pyridin-2-ylcarbamoyl)-methyl]-4-hydroxymethyl-1H-benzoimidazole-2-carboxylic acid (1-isopropyl-piperidin-4-yl)-amide]
0.031 µM | CC(C)N1CCC(NC(=O)c2nc3cc(C(=O)N4CC(O)C4)ccc3n2CC(=O)Nc2ccc(Cl)cn2)CC1 [Example 54, 1-[(5-Chloro-pyridin-2-ylcarbamoyl)-methyl]-5-(3-hydroxy-azetidine-1-carbonyl)-1H-benzoimidazole-2-carboxylic acid (1-isopropyl-piperidin-4-yl)-amide]
0.867 µM | CC(OC(=O)OC1CCCCC1)OC(=O)c1ccc2nc(C(=O)NC3CCN(C(C)C)CC3)n(CC(=O)Nc3ccc(Cl)cn3)c2c1 (centres unmarked) [Example 61, 3-[(5-Chloro-pyridin-2-ylcarbamoyl)-methyl]-2-(1-isopropyl-piperidin-4-ylcarbamoyl)-3H-benzoimidazole-5-carboxylic acid 1-cyclohexyloxycarbonyloxy-ethyl ester]
0.04 µM | O=C(Cn1c(C(=O)Nc2ccc(N3CCOCC3=O)cc2)nc2c(C(=O)O)cccc21)Nc1ccc(Cl)cn1 [Example 53, 1-[(5-Chloro-pyridin-2-ylcarbamoyl)-methyl]-2-[4-(3-oxo-morpholin-4-yl)-phenylcarbamoyl]-1H-benzoimidazole-4-carboxylic acid]
0.0035 µM | CC(C)N1CCC(NC(=O)c2nc3cc(C(=O)OCCO)ccc3n2Cc2cc(-c3ccc(Cl)s3)on2)CC1 [Example 78, 1-[5-(5-Chloro-thiophen-2-yl)-isoxazol-3-ylmethyl]-2-(1-isopropyl-piperidin-4-ylcarbamoyl)-1H-benzoimidazole-5-carboxylic acid 2-hydroxy-ethyl ester]
0.371 µM | COC(=O)c1ccc2nc(C(=O)NC3CCN(C(C)C)CC3)n(CC(=O)Nc3ccc(Cl)cn3)c2c1 [Example 17b, 3-[(5-Chloro-pyridin-2-ylcarbamoyl)-methyl]-2-(1-isopropyl-piperidin-4-ylcarbamoyl)-3H-benzoimidazole-5-carboxylic acid methyl ester]
0.0195 µM | COC(=O)c1ccc2c(c1)nc(C(=O)NC1CCN(C(C)C)CC1)n2CC(=O)Nc1ccc(Cl)cn1 [Example 17a, 1-[(5-Chloro-pyridin-2-ylcarbamoyl)-methyl]-2-(1-isopropyl-piperidin-4-ylcarbamoyl)-1H-benzoimidazole-5-carboxylic acid methyl ester]
0.0007 µM | CC(C)N1CCC(NC(=O)c2nc3c(C(=O)NCCO)cccc3n2Cc2cc(-c3ccc(Cl)s3)on2)CC1 [Example 22, 1-[5-(5-Chloro-thiophen-2-yl)-isoxazol-3-ylmethyl]-1H-benzoimidazole-2,4-dicarboxylic acid 4-[(2-hydroxy-ethyl)-amide] 2-[(1-isopropyl-piperidin-4-yl)-amide]]
0.0225 µM | CC(C)N1CCC(NC(=O)c2nc3c(c(=O)n(C)c(=O)n3C)n2Cc2cc(-c3ccc(Cl)s3)on2)CC1 [Example 92, 7-[5-(5-Chloro-thiophen-2-yl)-isoxazol-3-ylmethyl]-1,3-dimethyl-2,6-dioxo-2,3,6,7-tetrahydro-1H-purine-8-carboxylic acid (1-isopropyl-piperidin-4-yl)-amide]
0.21 µM | O=C1CCN(c2ccc(NC(=O)c3nc4ccccc4n3Cc3cc(-c4ccc(Cl)s4)on3)cc2)CC1 [Example 45, 1-[5-(5-Chloro-thiophen-2-yl)-isoxazol-3-ylmethyl]-1H-benzoimidazole-2-carboxylic acid [4-(4-oxo-piperidin-1-yl)-phenyl]-amide]
0.0105 µM | CC(C)N1CCC(NC(=O)c2nc3c(C(=O)N4CC(O)C4)cccc3n2CC(=O)Nc2ccc(Cl)cn2)CC1 [Example 32, 1-[(5-Chloro-pyridin-2-ylcarbamoyl)-methyl]-4-(3-hydroxy-azetidine-1-carbonyl)-1H-benzoimidazole-2-carboxylic acid (1-isopropyl-piperidin-4-yl)-amide]
54.5 µM | COC(=O)c1sc(OCC(F)(F)F)c2nc(C(=O)NC3CCN(C(C)C)CC3)n(Cc3cc(-c4ccc(Cl)s4)on3)c12 [Example 105, 3-[5-(5-Chloro-thiophen-2-yl)-isoxazol-3-ylmethyl]-2-(1-isopropyl-piperidin-4-ylcarbamoyl)-6-(2,2,2-trifluoro-ethoxy)-3H-thieno[3,4-d]imidazole-4-carboxylic acid methyl ester]
0.84 µM | O=C(Cn1c(C(=O)Nc2ccc(N3CCOC3=O)cc2)nc2ccccc21)Nc1ccc(Cl)cn1 [Example 43, 1-[(5-Chloro-pyridin-2-ylcarbamoyl)-methyl]-1H-benzoimidazole-2-carboxylic acid [4-(2-oxo-oxazolidin-3-yl)-phenyl]-amide]
0.019 µM | CCOC(=O)OC(C)OC(=O)c1ccc2c(c1)nc(C(=O)NC1CCN(C(C)C)CC1)n2CC(=O)Nc1ccc(Cl)cn1 (centres unmarked) [Example 62, 1-[(5-Chloro-pyridin-2-ylcarbamoyl)-methyl]-2-(1-isopropyl-piperidin-4-ylcarbamoyl)-1H-benzoimidazole-5-carboxylic acid 1-ethoxycarbonyloxy-ethyl ester]
0.0026 µM | CC(C)N1CCC(NC(=O)c2nc3c(C(=O)N4C(C)CCCC4C)cccc3n2CC(=O)Nc2ccc(Cl)cn2)CC1 (centres unmarked) [Example 75, 1-[(5-Chloro-pyridin-2-ylcarbamoyl)-methyl]-4-(2,6-dimethyl-piperidine-1-carbonyl)-1H-benzoimidazole-2-carboxylic acid (1-isopropyl-piperidin-4-yl)-amide]
0.0115 µM | CC(C)N1CCC(NC(=O)c2nc3ccc(S(=O)(=O)CCO)cc3n2Cc2cc(-c3ccc(Cl)s3)on2)CC1 [Example 29b, 1-[5-(5-Chloro-thiophen-2-yl)-isoxazol-3-ylmethyl]-6-(2-hydroxy-ethanesulfonyl)-1H-benzoimidazole-2-carboxylic acid (1-isopropyl-piperidin-4-yl)-amide]
0.0315 µM | COC(=O)c1cccc2c1nc(C(=O)Nc1ccc(N3CCOCC3=O)cc1)n2CC(=O)Nc1ccc(Cl)cn1 [Example 36, 1-[(5-Chloro-pyridin-2-ylcarbamoyl)-methyl]-2-[4-(3-oxo-morpholin-4-yl)-phenylcarbamoyl]-1H-benzoimidazole-4-carboxylic acid methyl ester]
